Assay results taken from paper PMC2010042, “Effects of pretreatment with phenobarbitone and phenytoin on the pharmacokinetics and toxicity of phenytoin on the pharmacokinetics and toxicity of misonidazole in mice” (British Journal of Cancer, 1979).
Structures can show the parent of a compound that is named as a salt.

Tests used:
body temperature = conditions: 1 g/kg MIS; all 3 pretreated groups (saline, phenobarbitone, phenytoin)
man = conditions: ref Dische et al., 1977; Urtasun et al., 1978; cited from earlier work
[1] = 1 g/kg; ref Brown et al., 1979; cited from earlier work
hypoxic tumour cells = test system: hypoxic tumour cells; parameters: method as in Brown et al., 1979; conditions: at equal tumour concentrations; ref Brown et al., 1979; cited from earlier work
[2] = Pharmacokinetics of MIS and Ro 05-9963 in plasma/blood, brain and tumour by HPLC after 1 g/kg MIS i.p.; conditions: for concentrations in whole blood compared with plasma: control studies
[3] = preliminary studies in man
in vivo = conditions: male, BALB/c, mouse, ip, LD50(7d) (95% confidence limits), MIS single i.p.
BALB/c male mice = conditions: MIS single i.p. 1.117-2.5 g/kg
[4] = Pharmacokinetics of MIS and Ro 05-9963 after 1 g/kg MIS i.p. in B10 mice bearing the MC6B tumour; conditions: enzyme inducers; B10 strain
mice = test system: mice; parameters: method as in Brown et al., 1979; conditions: ref Brown et al., 1979; cited from earlier work
[5] = parameters: method as in Adams et al., 1976; conditions: ref Adams et al., 1976; cited from earlier work
[6] = test system: microsomal drug-metabolizing enzymes; test: Pentobarbitone sleeping-time after pretreatment (index of microsomal enzyme induction); assay type: in vivo, tumour-free BALB/c mice; conditions: 60 mg/kg pentobarbitone i.p. on Day 9 after pretreatment regime
[7] = Body weight during pretreatment regime
MC6B and EMT6 tumours = test: Tumour volume in pretreated mice; assay type: in vivo; conditions: usually not significant (P > 0.05)
liver weight = test: Liver/body weight ratio after pretreatment; assay type: in vivo, tumour-free BALB/c mice; conditions: Day 9 after pretreatment regime
[8] = Approximate acute LD50 of single doses of phenobarbitone and phenytoin; conditions: male, BALB/c, mouse, in vivo
[9] = phenobarbitone or phenytoin pretreatment (Discussion)

## COCC(O)Cn1ccnc1[N+](=O)[O-] (stereo not shown) [MIS, 1-(2-nitroimidazol-1-yl)-3-meth-oxypropan-22-ol]
Body temperature
  change in body temperature after MIS: marked decrease in temperature
man
  peripheral neuropathy in man: dose-limiting toxicity
[1]
  t1/2 of MIS after bilateral kidney ligation: prolonged after bilateral kidney ligation
Hypoxic tumour cells
  radiosensitizing efficiency of MIS and Ro 05-9963: equally good radiosensitizers
[2]; 1 g/kg MIS i.p., phenobarbitone or phenytoin pretreatment vs control, plasma, brain and tumour
  reduction of apparent elimination half-life (t1/2) for MIS: 20-67%
[2]; 1 g/kg MIS i.p., phenobarbitone or phenytoin pretreatment, plasma, brain and tumour
  decrease of area under the curve (AUC) for MIS: 23-49%
[2]
  concentrations in whole blood compared with plasma: identical
[2]; male, BALB/c, mouse, tumour and brain / plasma, ip, 1 g/kg
  Kp: ~0.5
[2]; phenobarbitone and phenytoin pretreatment, plasma, brain or tumour
  effect of pretreatment on peak MIS concentration: did not alter
[2]; [9]
  decrease of blood (or plasma) MIS AUC: 25- 60%
  shortening of apparent t1/2 for MIS elimination from blood or plasma: 35-60%
[3]
  MIS t1/2 and AUC with phenytoin therapy: both reduced
In vivo; pretreatment phenobarbitone
  LD50 at 7 days: 1900 mg/kg
In vivo; pretreatment phenytoin
  LD50 at 7 days: 1780 mg/kg
In vivo; pretreatment saline (control)
  LD50 at 7 days: 1540 mg/kg
BALB/c male mice
  time of deaths after treatment: 3 to 4 days

## O=[N+]([O-])c1nccn1CC(O)CO (stereo not shown) [Ro 05-9963, 1-(2-nitroimidazol-1-yl)-2,3-propandiol]
[4]
  increase of blood (or plasma) AUC for metabolite Ro 05-9963: 100%
Hypoxic tumour cells
  radiosensitizing efficiency of MIS and Ro 05-9963: equally good radiosensitizers
mice
  LD50 compared with MIS: higher LD50 than MIS
[5]
  lipophilicity compared with MIS: considerably less lipophilic than MIS
[2]
  concentrations in whole blood compared with plasma: identical
[2]; enzyme inducers, BALB/c mice
  increase of blood (or plasma) AUC for metabolite Ro 05-9963: 10-60%

## CCC1(c2ccccc2)C(=O)NC(=O)NC1=O [phenobarbitone]
[6]
  pentobarbitone sleeping-time, % of untreated control: 36%
  pentobarbitone sleeping-time, mean: 26 min
[7]; normally completely regained by Day 9
  initial weight loss during pretreatment regime: up to 10%
MC6B and EMT6 tumours
  tumour volumes lower than the saline controls: up to 10%

## O=C1NC(=O)C(c2ccccc2)(c2ccccc2)N1 [phenytoin, 5.5-diphenylhydantoin, sodium salt]
[6]
  pentobarbitone sleeping-time, % of untreated control: 30%
[7]; mouse, in vivo
  weight loss during pretreatment: little or no weight loss
Liver weight
  liver wt/body wt, % of untreated control: 124%
[8]
  LD50: 200 to 240 mg/kg
MC6B and EMT6 tumours
  tumour volumes lower than the saline controls: up to 10%
